# Legend:
# ΔF508-CFTR [1] = molecular target: T1, ΔF508-CFTR (Homo sapiens, UniProt P13569, DEL508-508); test: CFTR cell surface levels using HRP-tagged ΔF508-CFTR expressing CFBE cells, in the presence of a co-corrector; assay type: cell-based; settings: HRP-tagged ΔF508-CFTR expressing CFBE cells, in the presence of 3 μM co-corrector; for EC50: read-out: EC50
# T1 construct: host or cells: CFBE41o-, doxycycline-inducible
# How it was run: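 Cells were seeded with 0.5 μg/mL doxycycline and held 68 h at 37 °C. Test compounds plus 3 μM co-corrector (final 0.1% DMSO) were then added for 20 h at 33 °C. Washed cells received HRP substrate, and luminescence was normalized between DMSO and 3 μM co-corrector controls.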
# ΔF508-CFTR [2] = molecular target: T1, ΔF508-CFTR; test: CFTR cell surface levels using HRP-tagged ΔF508-CFTR expressing CFBE cells, intrinsic corrector capacity; assay type: cell-based; settings: HRP-tagged ΔF508-CFTR CFBE41o- cells, compounds alone (intrinsic corrector capacity), 20 hours at 33° C.; for % Activation: positive control 3 μM corrector; for EC50: read-out: EC50
# How it was run: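 Here the cells express ΔF508-CFTR with horseradish peroxidase inserted in extracellular loop 4, so only rescued channel at the surface gives luminescent signal. Compounds act on their own, 20 h at the reduced temperature of 33 °C; values are percent activity relative to DMSO and a 3 μM corrector.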
# T1 sequence (P13569 with tags, fused parts or gaps DEL508-508): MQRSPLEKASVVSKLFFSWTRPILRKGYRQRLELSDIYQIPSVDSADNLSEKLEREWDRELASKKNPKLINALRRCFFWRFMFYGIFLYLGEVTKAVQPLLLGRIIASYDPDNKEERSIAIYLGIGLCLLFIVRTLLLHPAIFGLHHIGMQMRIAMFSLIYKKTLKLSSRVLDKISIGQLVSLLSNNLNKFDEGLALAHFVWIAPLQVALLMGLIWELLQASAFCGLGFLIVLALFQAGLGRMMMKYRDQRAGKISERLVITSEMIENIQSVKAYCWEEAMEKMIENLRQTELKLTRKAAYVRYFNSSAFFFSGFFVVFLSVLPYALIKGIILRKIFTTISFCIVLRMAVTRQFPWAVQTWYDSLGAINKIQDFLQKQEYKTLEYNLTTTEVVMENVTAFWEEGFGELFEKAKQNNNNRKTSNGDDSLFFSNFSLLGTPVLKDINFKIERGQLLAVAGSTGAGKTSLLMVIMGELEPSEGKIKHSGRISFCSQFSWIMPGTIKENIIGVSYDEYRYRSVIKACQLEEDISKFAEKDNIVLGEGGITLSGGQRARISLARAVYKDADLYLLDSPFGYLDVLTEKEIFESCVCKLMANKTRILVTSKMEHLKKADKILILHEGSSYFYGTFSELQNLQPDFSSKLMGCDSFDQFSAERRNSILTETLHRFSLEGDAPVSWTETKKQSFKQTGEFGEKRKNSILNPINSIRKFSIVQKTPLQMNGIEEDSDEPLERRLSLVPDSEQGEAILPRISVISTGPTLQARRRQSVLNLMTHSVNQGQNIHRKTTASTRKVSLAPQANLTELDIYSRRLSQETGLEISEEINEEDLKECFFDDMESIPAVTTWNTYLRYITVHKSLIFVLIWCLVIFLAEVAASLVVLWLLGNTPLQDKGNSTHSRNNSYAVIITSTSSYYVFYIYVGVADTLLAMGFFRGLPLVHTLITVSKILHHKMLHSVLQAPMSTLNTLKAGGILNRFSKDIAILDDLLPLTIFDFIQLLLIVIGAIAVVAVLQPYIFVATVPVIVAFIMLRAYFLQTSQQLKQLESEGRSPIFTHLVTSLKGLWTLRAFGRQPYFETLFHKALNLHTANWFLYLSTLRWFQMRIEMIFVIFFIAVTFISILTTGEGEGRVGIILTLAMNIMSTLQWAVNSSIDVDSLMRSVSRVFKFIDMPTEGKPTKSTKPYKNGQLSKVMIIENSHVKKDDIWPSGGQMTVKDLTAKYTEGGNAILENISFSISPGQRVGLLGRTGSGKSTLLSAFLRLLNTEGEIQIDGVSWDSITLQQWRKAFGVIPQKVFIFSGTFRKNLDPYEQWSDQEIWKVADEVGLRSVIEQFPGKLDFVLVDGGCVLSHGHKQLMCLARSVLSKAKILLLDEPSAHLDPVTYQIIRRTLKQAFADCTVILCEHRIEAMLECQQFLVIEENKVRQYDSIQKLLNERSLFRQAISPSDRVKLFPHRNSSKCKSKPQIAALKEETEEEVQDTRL
Compound,% Activation (ΔF508-CFTR [1]),EC50 (ΔF508-CFTR [1]),% Activation (ΔF508-CFTR [2]),EC50 (ΔF508-CFTR [2])
"Cc1cccc(-n2nc(C(C)C)c3c(N4CCC(F)(F)CC4)cc(C(=O)O)nc32)c1 [compound 210, 4-(4,4-difluoropiperidin-1-yl)-1-(3-methylphenyl)-3-(propan-2-yl)-1H-pyrazolo[3,4-b]pyridine-6-carboxylic acid]",261%,3.34 µM,66.65%,1.18 µM
"CC(C)c1nn(-c2cncc(N3CCOCC3)c2)c2nc(C(=O)O)cc(-c3ccc(N4CCOCC4)cc3)c12 [compound 211, 4-[4-(morpholin-4-yl)phenyl]-1-[5-(morpholin-4-yl)pyridin-3-yl]-3-(propan-2-yl)-1H-pyrazolo[3,4-b]pyridine-6-carboxylic acid]",289.75%,1.09 µM,94.07%,2.17 µM
"COC1CN(c2cc(C(=O)O)nc3c2c(C(C)C)nn3-c2cccc(C)c2)C1 [compound 212, 4-(3-methoxyazetidin-1-yl)-1-(3-methylphenyl)-3-(propan-2-yl)-1H-pyrazolo[3,4-b]pyridine-6-carboxylic acid]",386.9%,1.49 µM,139.7%,2.64 µM
"CO[C@@H]1CCC[C@@H](n2nc(C(C)C)c3c(-c4ccc(N5CCOCC5)cc4)cc(C(=O)O)nc32)C1 [compound 214, 1-[(1R,3R)-3-methoxycyclohexyl]-4-[4-(morpholin-4-yl)phenyl]-3-(propan-2-yl)-1H-pyrazolo[3,4-b]pyridine-6-carboxylic acid]",323%,0.609 µM,154%,0.82 µM
"Cc1cccc(-n2nc(C(C)C)c3c(N4CCC(C(F)(F)F)C4)cc(C(=O)O)nc32)c1 (stereo not shown) [compound 215, 1-(3-methylphenyl)-3-(propan-2-yl)-4-[3-(trifluoromethyl)pyrrolidin-1-yl]-1H-pyrazolo[3,4-b]pyridine-6-carboxylic acid]",347.15%,0.915 µM,165.95%,1.03 µM
"Cc1cccc(-n2nc(C(C)C)c3c(N4CC5CN(C(=O)OC(C)(C)C)CC5C4)cc(C(=O)O)nc32)c1 (stereo not shown) [compound 216, 4-[5-(tert-butoxycarbonyl)hexahydropyrrolo[3,4-c]pyrrol-2(1H)-yl]-1-(3-methylphenyl)-3-(propan-2-yl)-1H-pyrazolo[3,4-b]pyridine-6-carboxylic acid]",431.7%,1.11 µM,161%,1.01 µM
"Cc1nn(-c2ccccc2)c2nc(C(=O)O)cc(-c3ccc(N4CCC(N(C)C)C4)cc3)c12 (stereo not shown) [compound 217, 4-{4-[3-(dimethylamino)pyrrolidin-1-yl]phenyl}-3-methyl-1-phenyl-1H-pyrazolo[3,4-b]pyridine-6-carboxylic acid]",342.3%,1.47 µM,129.7%,1.52 µM
"Cc1cccc(-n2nc(C(C)C)c3c(N4CCC(C#N)C4)cc(C(=O)O)nc32)c1 (stereo not shown) [compound 218, 4-(3-cyanopyrrolidin-1-yl)-1-(3-methylphenyl)-3-(propan-2-yl)-1H-pyrazolo[3,4-b]pyridine-6-carboxylic acid]",380.9%,0.933 µM,169.4%,2.31 µM
"N#CC1CCN(c2ccc(-c3cc(C(=O)O)nc4c3c(C3CCC3)nn4C3CCCCC3)cc2)CC1 [compound 219, 4-[4-(4-cyanopiperidin-1-yl)phenyl]-3-cyclobutyl-1-cyclohexyl-1H-pyrazolo[3,4-b]pyridine-6-carboxylic acid]",474.5%,0.365 µM,248.7%,0.518 µM
"CC(C)c1nn(-c2cccc(N3CCCC3)c2)c2nc(C(=O)O)cc(-c3ccc(N4CCC(C#N)CC4)cc3)c12 [compound 221, 4-[4-(4-cyanopiperidin-1-yl)phenyl]-3-(propan-2-yl)-1-[3-(pyrrolidin-1-yl)phenyl]-1H-pyrazolo[3,4-b]pyridine-6-carboxylic acid]",645.97%,0.283 µM,429%,0.315 µM
"CC(C)c1nn(C2CCCCC2)c2nc(C(=O)O)cc(-c3ccc(N4CCCC(F)C4)nc3)c12 (stereo not shown) [compound 223, 1-cyclohexyl-4-[6-(3-fluoropiperidin-1-yl)pyridin-3-yl]-3-(propan-2-yl)-1H-pyrazolo[3,4-b]pyridine-6-carboxylic acid]",484.45%,0.687 µM,246.95%,0.714 µM
"COC1CCN(c2ccc(-c3cc(C(=O)O)nc4c3c(C(C)C)nn4C3CCCCC3)cn2)C1 (stereo not shown) [compound 224, 1-cyclohexyl-4-[6-(3-methoxypyrrolidin-1-yl)pyridin-3-yl]-3-(propan-2-yl)-1H-pyrazolo[3,4-b]pyridine-6-carboxylic acid]",396.65%,0.896 µM,189.6%,1.18 µM
"CC(C)c1nn(-c2cccc(N3CC(O)C3)c2)c2nc(C(=O)O)cc(-c3ccc(N4CCOCC4)cc3)c12 [compound 225, 1-[3-(3-hydroxyazetidin-1-yl)phenyl]-4-[4-(morpholin-4-yl)phenyl]-3-(propan-2-yl)-1H-pyrazolo[3,4-b]pyridine-6-carboxylic acid]",395.7%,0.901 µM,251.5%,1.98 µM
"Cc1cccc(-n2nc(C(C)C)c3c(N4CC5CN(CC#N)CC5C4)cc(C(=O)O)nc32)c1 (stereo not shown) [compound 226, 4-[5-(cyanomethyl)hexahydropyrrolo[3,4-c]pyrrol-2(1H)-yl]-1-(3-methylphenyl)-3-(propan-2-yl)-1H-pyrazolo[3,4-b]pyridine-6-carboxylic acid]",352.2%,1.35 µM,189.05%,3.34 µM
"CC(C)c1nn(-c2cc(Cl)ccn2)c2nc(C(=O)O)cc(-c3ccc(N4CCOCC4)cc3)c12 [compound 229, 1-(4-chloropyridin-2-yl)-4-[4-(morpholin-4-yl)phenyl]-3-(propan-2-yl)-1H-pyrazolo[3,4-b]pyridine-6-carboxylic acid]",298%,1.56 µM,130.65%,2.15 µM
"COCCN(C)c1ncc(-c2cc(C(=O)O)nc3c2c(C(C)C)nn3-c2cccc(N3CCOCC3)c2)cn1 [compound 230, 4-{2-[(2-methoxyethyl)(methyl)amino]pyrimidin-5-yl}-1-[3-(morpholin-4-yl)phenyl]-3-(propan-2-yl)-1H-pyrazolo[3,4-b]pyridine-6-carboxylic acid]",507.3%,0.514 µM,368.85%,1.49 µM
"CC(C)c1nn(-c2cccc(N3CCOCC3)c2)c2nc(C(=O)O)cc(-c3cnc(N(C)C4CCOCC4)nc3)c12 [compound 231, 4-{2-[methyl(oxan-4-yl)amino]pyrimidin-5-yl}-1-[3-(morpholin-4-yl)phenyl]-3-(propan-2-yl)-1H-pyrazolo[3,4-b]pyridine-6-carboxylic acid]",625.45%,0.57 µM,419%,0.733 µM
"COc1cccc(-n2nc(C)c3c(-c4ccc(N5CCN(CC#N)CC5)cc4)cc(C(=O)O)nc32)c1 [compound 232, 4-{4-[4-(cyanomethyl)piperazin-1-yl]phenyl}-1-(3-methoxyphenyl)-3-methyl-1H-pyrazolo[3,4-b]pyridine-6-carboxylic acid]",380.95%,1.28 µM,215.6%,1.68 µM
"CC(=O)N1CC2CN(c3cc(C(=O)O)nc4c3c(C(C)C)nn4-c3cccc(C)c3)CC2C1 (stereo not shown) [compound 233, 4-(5-acetylhexahydropyrrolo[3,4-c]pyrrol-2(11/)-yl)-1-(3-methylphenyl)-3-(propan-2-yl)-1H-pyrazolo[3,4-b]pyridine-6-carboxylic acid]",249.55%,3.34 µM,72.33%,3.03 µM
"Cc1cccc(-n2nc(C(C)C)c3c(N4CCC5C(CCN5C(=O)OC(C)(C)C)C4)cc(C(=O)O)nc32)c1 (stereo not shown) [compound 234, 4-[1-(tert-butoxycarbonyl)octahydro-5H-pyrrolo[3,2-c]pyridin-5-yl]-1-(3-methylphenyl)-3-(propan-2-yl)-1H-pyrazolo[3,4-b]pyridine-6-carboxylic acid]",510.27%,0.368 µM,292.97%,0.464 µM
"CC(C)c1nn(C2CCCCC2)c2nc(C(=O)O)cc(-c3cnc(N4CCC(C#N)CC4)nc3)c12 [compound 235, 4-[2-(4-cyanopiperidin-1-yl)pyrimidin-5-yl]-1-cyclohexyl-3-(propan-2-yl)-1H-pyrazolo[3,4-b]pyridine-6-carboxylic acid]",403.1%,0.743 µM,206.8%,0.832 µM
"CC(C)c1nn(C2CCCCC2)c2nc(C(=O)O)cc(-c3cnc(N(C)C4CCOCC4)nc3)c12 [compound 236, 1-cyclohexyl-4-{2-[methyl(oxan-4-yl)amino]pyrimidin-5-yl}-3-(propan-2-yl)-1H-pyrazolo[3,4-b]pyridine-6-carboxylic acid]",423.62%,0.638 µM,213.68%,0.656 µM

# — patent US9796711B2, “Substituted pyrazolo[3,4-b]pyridin-6-carboxylic acids and method of use” (AbbVie S.àr.l., priority 2015, dated 2017)
